Measured values: patent US11358969B2, “Indole AHR inhibitors and uses thereof” (Ikena Oncology, Inc., priority 2017, dated 2022)

How the values were obtained:
[1] = Mouse Pharmacokinetic Study (Example 1C); assay type: in vivo; conditions: mouse, plasma, CD-1 mice; for Vd: read-out: Vdss
Summary of the method: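 CD-1 mice dosed intravenously or by oral gavage; plasma sampled at 0.167, 0.5, 1, 2, 4, 6, 12 and 24 h post-dose. Samples analyzed by LC/MS/MS (MRM, positive mode) against a plasma standard curve of 1.0–3000 ng/mL; PK parameters from non-compartmental analysis.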

AHR = target: T1, AHR (UniProt P35869); assay: DRE-Luciferase Reporter Assay (Example 1A); assay type: cell-based, murine or human; conditions: cell line and AHR activating ligand not specified
T1 construct: IC50
T1 sequence (P35869 1-848): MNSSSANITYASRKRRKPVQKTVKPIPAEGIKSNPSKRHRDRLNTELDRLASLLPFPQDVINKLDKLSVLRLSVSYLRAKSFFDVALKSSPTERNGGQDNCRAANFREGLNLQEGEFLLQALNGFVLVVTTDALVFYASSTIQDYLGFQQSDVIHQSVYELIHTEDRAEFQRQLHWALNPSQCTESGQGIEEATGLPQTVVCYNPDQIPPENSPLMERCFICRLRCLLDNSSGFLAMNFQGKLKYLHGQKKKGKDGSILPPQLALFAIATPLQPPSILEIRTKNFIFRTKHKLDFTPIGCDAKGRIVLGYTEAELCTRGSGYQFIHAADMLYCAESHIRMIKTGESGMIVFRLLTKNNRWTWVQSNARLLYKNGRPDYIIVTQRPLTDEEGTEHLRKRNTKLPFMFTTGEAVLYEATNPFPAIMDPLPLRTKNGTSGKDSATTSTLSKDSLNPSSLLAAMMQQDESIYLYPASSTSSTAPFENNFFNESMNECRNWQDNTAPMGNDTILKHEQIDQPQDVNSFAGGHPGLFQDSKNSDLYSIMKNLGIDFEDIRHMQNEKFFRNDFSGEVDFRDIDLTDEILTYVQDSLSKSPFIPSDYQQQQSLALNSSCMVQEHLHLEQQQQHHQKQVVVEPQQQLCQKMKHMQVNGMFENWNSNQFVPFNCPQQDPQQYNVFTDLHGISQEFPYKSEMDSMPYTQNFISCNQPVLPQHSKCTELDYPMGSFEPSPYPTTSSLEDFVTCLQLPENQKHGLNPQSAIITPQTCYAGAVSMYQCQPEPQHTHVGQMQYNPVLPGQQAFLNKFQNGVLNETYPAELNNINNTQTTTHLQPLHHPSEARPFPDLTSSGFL
Procedure: AHR binds to Dioxin Responsive Elements (DRE) upstream of genes that it activates. One measure of AHR activity is activation of a reporter gene, such as luciferase, downstream of one or multiple DRE elements. Luciferase activity will reflect activation and inhibition of AHR in the cells expressing his reporter.
Murine Hepa1-6 or Hepa-1c1c7 or other murine cell line with a DRE-luciferase reporter either stably or transiently transfected were plated in media in plates (96-well, 384-well or other plates) and incubated overnight at 37° C. in a CO2 incubator. Likewise, human HepG2 or other human cell line with a DRE-luciferase reporter either stably or transiently transfected were plated in media in plates (96-well, 384-well or other plates) and incubated overnight at 37° C. in a CO2 incubator.
The next day, an AHR activating ligand, such as TCDD, kynurenine, ITE (2-(1H-indole-3-ylcarbonyl)-4-thiazolecarboxylic methyl ester), VAF347, BNF (beta-naphthoflavone), FICZ (6-formylindolo(3,2-b) carbazole or other AHR ligands, was added with or without AHR antagonist.
Cells were incubated for 4, 15 or 24 hours or another time point and then lysed for determination of luciferase activity as a read-out of the AHR activation or inhibition. Luciferase was measured with a commercial kit such as the Promega Luciferase kit or any kit or reagents that provide the luciferin substrate for measuring luciferase activity. The level of luciferase with only activating ligand added was the maximum signal while the luciferase with no ligand was the minimum signal. IC50 values were determined as the concentration which inhibits half of the luciferase activity.

[2] = tested on: CT26 murine colon carcinoma; assay: Efficacy study in the mouse colorectal cancer model CT26 (Example 1G); assay type: in vivo; conditions: CT26 in Balb/c mice, FIG. 3
Procedure: CT26 is a murine colon carcinoma cell line obtained from ATCC. CT26 cells were cultured in RPMI supplemented with 10% FBS. 5×10^5 CT26 cells in 100 μl PBS were implanted subcutaneously in 6-8 week old female, Balb/c mice. Dosing for the efficacy study starts 4 days post implant: AHR antagonist was dosed orally, every day (QD) at or 10 mg/kg for 3 weeks. anti-PD-1 (BioXcell RMP1-14) was twice a week, intraperitoneally (IP) at 10 mg/kg for five total doses. Tumors were monitored by caliper measurement every 2-3 days and body weight measured three times per week.

bioavailability ([1]; po, 30 mg/kg) | AUC(0-inf) ([1]; iv, 3 mg/kg) | AUC(0-t) ([1]; iv, 3 mg/kg) | clearance ([1]; iv, 3 mg/kg) | half-life ([1]; iv, 3 mg/kg) | Vd ([1]; iv, 3 mg/kg) | AUC(0-inf) ([1]; po, 30 mg/kg) | AUC(0-t) ([1]; po, 30 mg/kg) | Cmax ([1]; po, 30 mg/kg) | Tmax ([1]; po, 30 mg/kg) | half-life ([1]; po, 30 mg/kg) | IC50 (AHR) | Structure (SMILES) | Tumor growth ([2]; I-70 alone, orally QD 10 mg/kg for 3 weeks) | Tumor growth ([2]; I-70 in combination with anti-PD-1 (IP 10 mg/kg twice a week))
12% | 610 ng·h/mL | 554 ng·h/mL | 82 mL/min/kg | 1.99 h | 9.6 L/kg | 743 ng·h/mL | 730 ng·h/mL | 182 ng/mL | 0.2 h | 3.9 h | < 500 nM | CC(C)c1cnn2c(NCCc3c[nH]c4ccccc34)cc(-c3cncc(F)c3)nc12 [I-2, N-(2-(1H-indol-3-yl)ethyl)-5-(5-fluoropyridin-3-yl)-3-isopropylpyrazolo[1,5-a]pyrimidin-7-amine] |  | 
75% | 1210 ng·h/mL | 1070 ng·h/mL | 41.2 mL/min/kg | 8.4 h | 24 L/kg | 9140 ng·h/mL | 7560 ng·h/mL | 853 ng/mL | 2 h | 8.8 h |  | CC(C)c1cnn2c(N[C@@H]3CCc4[nH]c5ccccc5c4C3)nc(-c3cncc(F)c3)nc12 [I-40, (3R)—N-[2-(5-Fluoro-3-pyridyl)-8-isopropyl-pyrazolo[1,5-a][1,3,5]triazin-4-yl]-2,3,4,9-tetrahydro-1H-carbazol-3-amine] |  | 
26% | 872 ng·h/mL | 862 ng·h/mL | 54.9 mL/min/kg | 1.08 h | 3.2 L/kg | 1990 ng·h/mL | 1940 ng·h/mL | 900 ng/mL | 0.5 h | 2.26 h |  | Cc1cnn2c(NCCc3c[nH]c4ccccc34)cc(-c3cncc(F)c3)nc12 [I-70, 5-(5-Fluoro-3-pyridyl)-N-[2-(1H-indol-3-yl)ethyl]-3-methyl-pyrazolo[1,5-a]pyrimidin-7-amine] | inhibited | inhibited
79% | 1330 ng·h/mL | 1200 ng·h/mL | 37.5 mL/min/kg | 8.52 h | 19.6 L/kg | 10600 ng·h/mL | 9650 ng·h/mL | 1410 ng/mL | 1 h | 7.16 h |  | Cc1cnn2c(N[C@@H]3CCc4[nH]c5ccccc5c4C3)nc(-c3cncc(F)c3)nc12 [I-201, (3R)—N-[2-(5-fluoro-3-pyridyl)-8-methyl-pyrazolo[1,5-a][1,3,5]triazin-4-yl]-2,3,4,9-tetrahydro-1H-carbazol-3-amine] |  | 
